Source: US12421225B2, “Heteroaromatic amide derivative and medicament containing the same” (KAKEN PHARMACEUTICAL CO., LTD., priority 2018, dated 2025)

target: human Nav1.7 (Homo sapiens (Human), UniProt Q15858); experiment: Human Nav1.7 inhibitory activity evaluation (automated patch clamp QPatch16X, HEK293A cells stably expressing human Nav1.7 and human Navβ1); type: cell-based; conditions: human Nav1.7, automated patch clamp
Experimental: Test Example 1: Human Nav1.7 Inhibitory Activity Evaluation
A cell line in which human Nav1.7 and human Navβ1 subunits were stably expressed in HEK293A cells was used. Dulbecco's Modified Eagle Medium (DMEM) supplemeted with 10% fetal bovine serum, 600 μg/ml geneticin, and 2 μg/ml blasticidin S were used as culture medium under the conditions of 37° C. and 5% CO2 in T175 flasks to carry out culturing. When 60-80% confluence was reached, the cells were detached and a cell suspension of about 0.5-5.0×10^6 cells/mL was prepared. The amount of current through human Nav1.7 was recorded using a fully automatic patch clamp device QPatch16X (Sophion Biosciences) at room temperature. As the extracellular solution, the solution of 145 mM NaCl, 4 mM KCl, 1 mM MgCl2, 2 mM CaCl2, 10 mM Glucose, 10 mM 4-(2-hydroxyethyl)-1-piperazine ethanesulfonic acid (HEPES) at pH 7.4 was used. As the intracellular solution, the solution of 135 mM CsF, ⅕ mM glycol ether diaminetetraacetic acid (EGTA)/CsOH, 10 mM HEPES, 10 mM NaCl at pH 7.3 was used. The test compounds were dissolved in dimethyl sulfoxide (DMSO) and diluted with the extracellular solution to attain the DMSO concentration of 0.1% at the time of assay.
The current response was obtained at a sampling frequency of 25 kHz, and noise was removed with a 3 kHz low-pass filter. The holding potential was −100 mV. Correction of the leakage current was carried out by applying a step pulse of −120 mV before the test pulse. In order to investigate inhibitory action of the test compound, the following test pulse was given: Namely, after depolarizing pulse of −10 mV was applied for 50 milliseconds, it was fixed at −120 mV for 500 milliseconds; a potential at which about 30-40% of the channel was inactivated was maintained for 15 seconds, then fixed again at −120 mV for 100 milliseconds, and finally a −10 mV depolarization pulse was given for 50 milliseconds. Test pulses were given before and after the test compound addition.
The inhibitory activity of the test compound was determined based on the amount of inward current generated by the second depolarization pulse, and the 50% inhibitory concentration (IC50) was calculated from the concentration-response curve.

human Nav1.7, sequence (Q15858 whole entry): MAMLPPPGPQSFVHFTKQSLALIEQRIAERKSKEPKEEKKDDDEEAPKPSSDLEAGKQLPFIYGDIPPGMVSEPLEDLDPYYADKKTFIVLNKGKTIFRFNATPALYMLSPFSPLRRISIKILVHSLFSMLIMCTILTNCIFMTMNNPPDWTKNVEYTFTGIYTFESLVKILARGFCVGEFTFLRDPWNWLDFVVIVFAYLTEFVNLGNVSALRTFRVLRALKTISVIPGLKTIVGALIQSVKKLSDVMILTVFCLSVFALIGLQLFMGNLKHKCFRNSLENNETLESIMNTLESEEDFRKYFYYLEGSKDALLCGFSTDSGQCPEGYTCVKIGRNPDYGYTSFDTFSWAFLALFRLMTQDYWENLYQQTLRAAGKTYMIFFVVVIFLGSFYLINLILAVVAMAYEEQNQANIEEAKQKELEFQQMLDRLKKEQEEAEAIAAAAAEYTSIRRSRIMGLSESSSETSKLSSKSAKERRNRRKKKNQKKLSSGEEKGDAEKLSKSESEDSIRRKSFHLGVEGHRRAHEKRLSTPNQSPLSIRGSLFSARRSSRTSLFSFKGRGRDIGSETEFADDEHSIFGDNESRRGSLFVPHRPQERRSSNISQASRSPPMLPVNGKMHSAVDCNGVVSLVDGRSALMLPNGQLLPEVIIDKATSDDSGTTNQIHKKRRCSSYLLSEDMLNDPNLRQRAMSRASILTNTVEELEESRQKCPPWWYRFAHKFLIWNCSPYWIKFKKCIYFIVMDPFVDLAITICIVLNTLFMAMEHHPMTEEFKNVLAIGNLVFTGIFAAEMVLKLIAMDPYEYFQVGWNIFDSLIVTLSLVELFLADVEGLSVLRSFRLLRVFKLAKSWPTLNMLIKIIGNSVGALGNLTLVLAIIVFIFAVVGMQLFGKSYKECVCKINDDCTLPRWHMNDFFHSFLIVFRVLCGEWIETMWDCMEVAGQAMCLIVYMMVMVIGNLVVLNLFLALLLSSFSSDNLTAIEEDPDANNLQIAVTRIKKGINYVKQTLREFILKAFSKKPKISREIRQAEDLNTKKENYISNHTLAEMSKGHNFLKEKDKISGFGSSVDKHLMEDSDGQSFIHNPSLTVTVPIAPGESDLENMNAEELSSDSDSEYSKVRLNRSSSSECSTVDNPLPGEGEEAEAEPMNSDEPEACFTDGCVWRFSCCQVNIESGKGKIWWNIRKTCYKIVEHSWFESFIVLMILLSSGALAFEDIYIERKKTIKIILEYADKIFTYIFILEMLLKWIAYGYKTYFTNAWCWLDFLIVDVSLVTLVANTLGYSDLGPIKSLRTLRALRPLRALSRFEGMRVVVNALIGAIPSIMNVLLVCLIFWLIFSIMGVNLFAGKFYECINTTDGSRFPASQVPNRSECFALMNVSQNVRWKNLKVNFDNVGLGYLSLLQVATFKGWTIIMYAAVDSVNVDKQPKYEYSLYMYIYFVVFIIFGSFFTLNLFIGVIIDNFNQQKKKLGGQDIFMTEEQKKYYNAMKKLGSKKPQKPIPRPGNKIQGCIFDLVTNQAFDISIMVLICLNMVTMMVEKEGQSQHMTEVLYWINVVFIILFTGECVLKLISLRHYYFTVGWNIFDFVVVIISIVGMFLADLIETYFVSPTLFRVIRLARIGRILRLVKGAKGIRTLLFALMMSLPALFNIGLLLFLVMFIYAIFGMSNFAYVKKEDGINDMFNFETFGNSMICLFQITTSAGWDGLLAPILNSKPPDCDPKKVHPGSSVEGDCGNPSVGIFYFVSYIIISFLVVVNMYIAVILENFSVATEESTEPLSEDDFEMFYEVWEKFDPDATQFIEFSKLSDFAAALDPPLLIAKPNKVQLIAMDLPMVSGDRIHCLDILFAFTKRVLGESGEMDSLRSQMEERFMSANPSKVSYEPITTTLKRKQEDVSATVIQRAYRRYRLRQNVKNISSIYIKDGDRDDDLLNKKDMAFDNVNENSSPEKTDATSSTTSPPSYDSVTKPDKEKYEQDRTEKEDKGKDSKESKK
human Nav1.7, sequence (Q07699 19-218 partner): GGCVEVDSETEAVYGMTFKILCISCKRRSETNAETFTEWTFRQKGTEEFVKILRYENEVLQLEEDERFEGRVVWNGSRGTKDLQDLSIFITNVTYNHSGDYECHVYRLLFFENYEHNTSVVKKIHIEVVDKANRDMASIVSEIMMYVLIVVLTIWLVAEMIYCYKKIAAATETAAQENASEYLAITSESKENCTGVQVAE

`O=C(c1cn2c(n1)CCC(c1cccc(N3CC(O)C3)n1)C2)N1CCC(c2ccccc2)C1` (stereo not drawn) [Example 309] and `O=C(c1cn2c(n1)CCC(c1cccc(N3CCCC3)n1)C2)N1CCC(c2ccccc2)C1` (stereo not drawn) [Example 310] cannot be ordered by IC50: less than 10 µM for the first, less than 10 µM for the second.

`O=C(N[C@H]1COc2ccccc2C1)c1cn2c(n1)CCC(c1cccc(C(F)(F)F)n1)C2` (stereo partly drawn) [Example 314] and `CN(C1CCc2nc(C(=O)N[C@H]3COc4ccccc4C3)cn2C1)S(=O)(=O)c1ccccc1` (stereo partly drawn) [Example 322] cannot be ordered by IC50: less than 1 µM for the first, less than 10 µM for the second.

`O=C(c1cn2c(n1)CCC(c1cccnc1C(F)(F)F)C2)N1CCCC1c1ccccc1` (stereo not drawn) [Example 315] and `CN1Cc2nc(C(=O)N3CC(Oc4cccc(C(F)(F)F)n4)C3)cn2CC1c1ccccc1` (stereo not drawn) [Example 330] cannot be ordered by IC50: less than 10 µM for the first, less than 10 µM for the second.

`CCC(F)(CC)C1CCc2nc(C(=O)N[C@H]3COc4ccccc4C3)cn2C1` (stereo partly drawn) [Example 319] and `CC(C)(F)CCC1CCc2nc(C(=O)N[C@H]3COc4ccccc4C3)cn2C1` (stereo partly drawn) [Example 320] cannot be ordered by IC50: less than 10 µM for the first, less than 10 µM for the second.

`CN1Cc2nc(C(=O)NCCc3c[nH]c4ccccc34)cn2CC1c1ccccc1` (stereo not drawn) [Example 323] and `CN1Cc2nc(C(=O)N3CCC(F)(c4ccccc4Cl)C3)cn2CC1c1ccccc1` (stereo not drawn) [Example 329] cannot be ordered by IC50: less than 10 µM for the first, less than 1 µM for the second.

`CN1Cc2nc(C(=O)N3CCC(Oc4cccc(C(F)(F)F)n4)C3)cn2CC1c1cccc(OC(F)(F)F)c1` (stereo not drawn) [Example 335] and `O=C(N[C@H]1COc2ccc(C(F)(F)F)cc2C1)c1nc2n(c1-c1cccnc1OCC(F)(F)F)CCOC2` [Example 346] cannot be ordered by IC50: less than 10 µM for the first, less than 10 µM for the second.

`O=C(N[C@H]1COc2ccccc2C1)c1nc2n(c1-c1ccccc1)CCN(C(=O)C(F)(F)F)C2` [Example 339] and `O=C(NC1COc2ccccc2C1)c1nn2c(c1-c1ccccc1)CCCC2` (stereo not drawn) [Example 347] cannot be ordered by IC50: less than 10 µM for the first, less than 10 µM for the second.

`N#Cc1ccc2c(c1)C[C@@H](NC(=O)c1nc3n(c1-c1cccc(Cl)n1)CCOC3)CO2` [Example 341] and `O=C(N[C@H]1COc2ccc(C3CC3)cc2C1)c1nc2n(c1-c1ccccn1)CCOC2` [Example 342] cannot be ordered by IC50: less than 1 µM for the first, less than 1 µM for the second.

`COc1cccc(-c2c(C(=O)N[C@H]3COc4ccc(Cl)cc4C3)nn3c2CCCC3)n1` [Example 348] and `COc1ccc(C2CCn3nc(C(=O)N[C@H]4COc5ccc(Cl)cc5C4)cc3O2)cn1` (stereo partly drawn) [Example 371] cannot be ordered by IC50: less than 1 µM for the first, less than 1 µM for the second.

`O=C(NC1COc2c(F)cc(F)cc2C1)c1cc2n(n1)CCC(c1ccccc1)O2` (stereo not drawn) [Example 354] and `O=C(NC1COc2ccc(Cl)cc2C1)c1cc2n(n1)CCC(c1ccccc1)O2` (stereo not drawn) [Example 355] cannot be ordered by IC50: less than 10 µM for the first, less than 1 µM for the second.

`O=C(NC1COc2ccc3ncccc3c2C1)c1cc2n(n1)CCC(c1ccccc1F)O2` (stereo not drawn) [Example 363] and `CCOC(C)c1ccc2c(c1)C[C@@H](NC(=O)c1cc3n(n1)CCC(c1ccccc1F)O3)CO2` (stereo partly drawn) [Example 365] cannot be ordered by IC50: less than 10 µM for the first, less than 10 µM for the second.

`COc1ncccc1C1CCn2nc(C(=O)N[C@H]3COc4ccc(Cl)cc4C3)cc2O1` (stereo partly drawn) [Example 367] and `CCOc1ncccc1C1CCn2nc(C(=O)N[C@H]3COc4ccc(C#N)cc4C3)cc2O1` (stereo partly drawn) [Example 372] cannot be ordered by IC50: less than 1 µM for the first, less than 1 µM for the second.

`O=C(N[C@H]1COc2ccc(CN3CCOCC3)cc2C1)c1cc2n(n1)CCC(c1ccccc1F)O2` (stereo partly drawn) [Example 368] and `CN(C)CCOCc1ccc2c(c1)C[C@@H](NC(=O)c1cc3n(n1)CCC(c1ccccc1F)O3)CO2` (stereo partly drawn) [Example 369] cannot be ordered by IC50: less than 10 µM for the first, less than 10 µM for the second.

`CN(C)C(=O)COCc1ccc2c(c1)C[C@@H](NC(=O)c1cc3n(n1)CCC(c1ccccc1F)O3)CO2` (stereo partly drawn) [Example 370] and `N#Cc1ccc2c(c1)C[C@@H](NC(=O)c1cc3n(n1)CCC(Cc1ccc(F)cc1)O3)CO2` (stereo partly drawn) [Example 384] cannot be ordered by IC50: less than 10 µM for the first, less than 1 µM for the second.

`O=C(N[C@H]1COc2ccc(-c3ccncc3)cc2C1)c1cc2n(n1)CCC(C(F)(F)F)O2` (stereo partly drawn) [Example 376] and `COc1ncccc1-c1ccc2c(c1)C[C@@H](NC(=O)c1cc3n(n1)CCC(C(F)(F)F)O3)CO2` (stereo partly drawn) [Example 377] cannot be ordered by IC50: less than 10 µM for the first, less than 10 µM for the second.

`C=C1CCn2nc(C(=O)N[C@H]3COc4ccc(Cl)cc4C3)cc2O1` [Example 379] and `O=C(N[C@H]1COc2ccc(Cl)cc2C1)c1cc2n(n1)CCC(CF)O2` (stereo partly drawn) [Example 381] cannot be ordered by IC50: less than 1 µM for the first, less than 10 µM for the second.

`O=C(N[C@H]1COc2ccc(-c3cnc(N4CCC4)nc3)cc2C1)c1cc2n(n1)CCC(C(F)(F)F)O2` (stereo partly drawn) [Example 380] and `C=Cc1ccc2c(c1)C[C@@H](NC(=O)c1cc3n(n1)CCC(C(F)(F)F)O3)CO2` (stereo partly drawn) [Example 396] cannot be ordered by IC50: less than 10 µM for the first, less than 1 µM for the second.

`CC1Oc2cc(C(=O)N[C@H]3COc4ccc(Cl)cc4C3)nn2CC1(F)F` (stereo partly drawn) [Example 385] and `O=C(N[C@H]1COc2ccc(Cl)cc2C1)c1cc2n(n1)CCC(CC(F)F)O2` (stereo partly drawn) [Example 404] cannot be ordered by IC50: less than 10 µM for the first, less than 1 µM for the second.

`O=C(N[C@H]1COc2ccc(Cl)cc2C1)c1cc2n(n1)CCC(C1CC1)O2` (stereo partly drawn) [Example 387] and `N#Cc1ccc2c(c1)C[C@@H](NC(=O)c1cc3n(n1)CCC(C1CCC1)O3)CO2` (stereo partly drawn) [Example 388] cannot be ordered by IC50: less than 1 µM for the first, less than 1 µM for the second.

`N#Cc1ccc2c(c1)C[C@@H](NC(=O)c1cc3n(n1)CCC(C#Cc1ccccc1)O3)CO2` (stereo partly drawn) [Example 390] and `COC(C)(C)C#CC1CCn2nc(C(=O)N[C@H]3COc4ccc(C#N)cc4C3)cc2O1` (stereo partly drawn) [Example 394] cannot be ordered by IC50: less than 10 µM for the first, less than 10 µM for the second.

`CC(C)C1CCn2nc(C(=O)N[C@H]3COc4ccc(C#N)cc4C3)cc2O1` (stereo partly drawn) [Example 393] and `N#Cc1ccc2c(c1)C[C@@H](NC(=O)c1cc3n(n1)CCC(C(O)C(F)(F)F)O3)CO2` (stereo partly drawn) [Example 417] cannot be ordered by IC50: less than 10 µM for the first, less than 10 µM for the second.

`O=C(N[C@H]1COc2ccc(Cl)cc2C1)c1cc2n(n1)CCC(CC1CCOCC1)O2` (stereo partly drawn) [Example 395] and `O=C(N[C@H]1COc2ccc(Cl)cc2C1)c1cc2n(n1)CCC(COCC1CCOCC1)O2` (stereo partly drawn) [Example 413] cannot be ordered by IC50: less than 1 µM for the first, less than 1 µM for the second.

`O=C(N[C@H]1COc2ccc(CCOCC(F)(F)F)cc2C1)c1cc2n(n1)CCC(C(F)(F)F)O2` (stereo partly drawn) [Example 397] and `O=C(N[C@H]1COc2ccc(COC3CCC3)cc2C1)c1cc2n(n1)CCC(C(F)(F)F)O2` (stereo partly drawn) [Example 399] cannot be ordered by IC50: less than 1 µM for the first, less than 1 µM for the second.

`COC(C)(C)C#Cc1ccc2c(c1)C[C@@H](NC(=O)c1cc3n(n1)CCC(C(F)(F)F)O3)CO2` (stereo partly drawn) [Example 398] and `C#Cc1ccc2c(c1)C[C@@H](NC(=O)c1cc3n(n1)CCC(COCC(F)(F)F)O3)CO2` (stereo partly drawn) [Example 436] cannot be ordered by IC50: less than 10 µM for the first, less than 1 µM for the second.

`CC1(C)CCn2nc(C(=O)N[C@H]3COc4ccc(CCOC(F)(F)F)cc4C3)cc2O1` [Example 403] and `O=C(N[C@H]1COc2ccc(Cl)cc2C1)c1cc2n(n1)CCC(COC(F)(F)F)O2` (stereo partly drawn) [Example 420] cannot be ordered by IC50: less than 1 µM for the first, less than 1 µM for the second.

`O=C(N[C@H]1COc2ccc(C3CC3)cc2C1)c1cc2n(n1)CCC(C(F)F)O2` (stereo partly drawn) [Example 405] and `CCOC(F)C1CCn2nc(C(=O)N[C@H]3COc4ccc(Cl)cc4C3)cc2O1` (stereo partly drawn) [Example 409] cannot be ordered by IC50: less than 1 µM for the first, less than 1 µM for the second.

`O=C(N[C@H]1COc2ccc(Cl)cc2C1)c1cc2n(n1)CCC(C#CC1CC1)O2` (stereo partly drawn) [Example 406] and `N#Cc1ccc2c(c1)C[C@@H](NC(=O)c1cc3n(n1)CCC(COCC1CCC1)O3)CO2` (stereo partly drawn) [Example 410] cannot be ordered by IC50: less than 1 µM for the first, less than 1 µM for the second.

`O=C(c1cc2n(n1)CCC(COCC1COC1)O2)N(CC1COC1)[C@H]1COc2ccc(-c3ccccn3)cc2C1` (stereo partly drawn) [Example 414] and `O=C(N[C@H]1COc2ccc(-c3cnn(CC(F)(F)F)c3)cc2C1)c1cc2n(n1)CCC(COCC1CC1)O2` (stereo partly drawn) [Example 430] cannot be ordered by IC50: less than 10 µM for the first, less than 1 µM for the second.

`O=C(N[C@H]1COc2ccc(Cl)cc2C1)c1cc2n(n1)CCC1(CCOCC1)O2` [Example 416] and `CC1(COCC2CC2)CCn2nc(C(=O)N[C@H]3COc4ccc(C#N)cc4C3)cc2O1` (stereo partly drawn) [Example 419] cannot be ordered by IC50: less than 10 µM for the first, less than 10 µM for the second.

`N#Cc1ccc2c(c1)C[C@@H](NC(=O)c1cc3n(n1)CCC(COCCC(F)(F)F)O3)CO2` (stereo partly drawn) [Example 418] and `N#Cc1ccc2c(c1)C[C@@H](NC(=O)c1cc3n(n1)CCC(COCC1(C(F)(F)F)CC1)O3)CO2` (stereo partly drawn) [Example 434] cannot be ordered by IC50: less than 10 µM for the first, less than 1 µM for the second.

`N#Cc1ccc2c(c1)C[C@@H](NC(=O)c1cc3n(n1)CCC(CSCC(F)(F)F)O3)CO2` (stereo partly drawn) [Example 423] and `N#Cc1ccc2c(c1)C[C@@H](NC(=O)c1cc3n(n1)CCC(COC1CC(F)C1)O3)CO2` (stereo partly drawn) [Example 439] cannot be ordered by IC50: less than 1 µM for the first, less than 10 µM for the second.

`N#Cc1ccc2c(c1)C[C@@H](NC(=O)c1cc3n(n1)CCC(CSCC(F)(F)F)O3)CO2` (stereo partly drawn) [Example 424] and `O=C(N[C@H]1COc2ccc(C(F)(F)F)cc2C1)c1cc2n(n1)CCC(CCOC(F)F)O2` (stereo partly drawn) [Example 433] cannot be ordered by IC50: less than 10 µM for the first, less than 1 µM for the second.

`O=C(N[C@H]1COc2ccc(-c3cnccn3)cc2C1)c1cc2n(n1)CCC(COCC1(C(F)(F)F)CC1)O2` (stereo partly drawn) [Example 435] and `O=C(N[C@H]1COc2ccc(COCC(F)(F)F)cc2C1)c1cc2n(n1)CCC(COC1CCC1)O2` (stereo partly drawn) [Example 438] cannot be ordered by IC50: less than 1 µM for the first, less than 1 µM for the second.
